Tests used:
[1] = biological target: T1, AChE (from electric eel) (Electrophorus electricus, UniProt O42275); assay: biochemical; details: eeAChE; for IC50: mean ± spread
T1 construct: purchased Sigma-Aldrich

[2] = test system: primary cortical neurons; assay: Neuroprotection against OGD/R injury, MTT cell viability; assay type: cell-based; details: Rattus norvegicus, Primary cortical neuron, compound 10 μM, control 100%, OGD/R group 40.4%, read-out: Cell viability (MTT) after OGD/R
Protocol: The parental compounds Clau F and CZ-7 have remarkable neuroprotective effects. To further confirm whether the derivatives retain activity, an OGD/R model was performed in primary cortical neurons, and 3-(4,5-dimethylthiazol-2-yl)-2,5-diphenyltetrazolium bromide (MTT) assays were used to test cell viability. […]. According to the experimental results above, compound 6bd was selected as the candidate compound for the subsequent investigations.
[…]. All cell suspensions were grown in neurobasal/B27 medium with 100-U/mL penicillin and 100-μg/mL streptomycin. The cells were plated in poly-L-lysine (PLL, 0.1 mg/mL)-coated multiwell plates or chamber slides and maintained at 37 °C in a humidified atmosphere of 5% CO2 and 95% air. Seven day cultures were used for treatment. The treatment methods were similar to those used for PC12, but the concentrations of H2O2 and sodium dithionite were 100 μM and 2 mM, respectively.
Cell viability was determined by MTT assay. Cells were incubated with 5 mg/mL MTT (10 μL) at 37 °C for 4 h. The formazan crystals were dissolved, and absorbance was determined at 570 nm using a Microplate Reader (Thermo, Germany). The cell viability was expressed as a percentage of the optical density (OD) value of the control cultures.
Figure 2 Neuroprotective activity screening of 6aa–ad, 6ba–bf, 6ca–cd, and CZ-7 at 10 μM in primary cortical neurons induced by oxygen–glucose deprivation/reoxygenation (OGD/R). Neurons were exposed to […] sodium dithionite and reoxygenation. A 3-(4,5-dimethylthiazol-2-yl)-2,5-diphenyltetrazolium bromide (MTT) assay was used to test the cell viability. The absorbance of normal cells was regarded as 100%. Error bars represent the standard deviation. ### p < 0.001 vs. control; ** p < 0.05, *** p < 0.01 vs. model (means ± standard deviation, n = 6).

[3] = parameters: method as in PMID 29202406; details: cited from earlier work
[4] = test system: ICR (Institute of Cancer Research) mice; details: oral 1 g/kg dose; cited from earlier work
[5] = biological target: butyrylcholinesterase (BuChE, from equine serum) (Equus caballus, UniProt P81908); assay: biochemical; details: eqBuChE; mean ± spread
[6] = Singlet oxygen scavenging by ESR spectroscopy (TEMP, UVA light); assay type: physicochemical; details: 10^−2 mol/L compound, 5 × 10^−2 mol/L TEMP in DMSO, UVA light 1 min
Protocol: Oxidative stress caused by reactive oxygen (for example, singlet oxygen and hydroxyl radical) is related to the death of neurons and the formation of intracellular Aβ oligomer. Drugs designed to prevent the formation or removal of free radicals in the brain are beneficial for AD. The main technique for detecting organic free radicals is electron spin resonance (ESR) spectroscopy. This technology can detect radical concentrations on the order of 10 nM or less under favorable conditions and has high sensitivity. Therefore, compound 6bd was tested for its ability to scavenge active oxygen by using ESR spectroscopy. For comparison, edaravone (Eda) was used as a reference.
ESR signals were recorded with a 10 mW incident microwave and […] field modulation of 1 G. The scan width was 150 G for 2, 2, 6, 6-tetramethylpiperidine (TEMP) experiments. All measurements were performed at room temperature (RT). Briefly, 5 × 10^−2 mol/L TEMP and 10^−2 mol/L 6bd or Eda were mixed in DMSO, and ESR signals were obtained after exposure to UVA light for 1 min.

[7] = in vitro; assay type: in vitro ADME; details: PAMPA-BBB
Protocol: A blood–brain barrier (BBB) penetration assay in vitro is essential for anti-AD drug development. […] The compounds’ blood–brain barrier penetration was evaluated by using the parallel artificial membrane permeation assay (PAMPA) described by Di et al.. The two commercial drugs were purchased from Aladdin (China). Porcine brain lipid was obtained from Sigma (China). The donor microplate (polyvinylidene fluoride (PVDF) membrane, pore size 0.45 μm) and acceptor microplate were both from Millipore (China). The 96-well ultraviolet (UV) plate (COSTAR) was from Corning Incorporated (USA). The detailed procedure was described in [26, 27].

T1 sequence (O42275 24-633): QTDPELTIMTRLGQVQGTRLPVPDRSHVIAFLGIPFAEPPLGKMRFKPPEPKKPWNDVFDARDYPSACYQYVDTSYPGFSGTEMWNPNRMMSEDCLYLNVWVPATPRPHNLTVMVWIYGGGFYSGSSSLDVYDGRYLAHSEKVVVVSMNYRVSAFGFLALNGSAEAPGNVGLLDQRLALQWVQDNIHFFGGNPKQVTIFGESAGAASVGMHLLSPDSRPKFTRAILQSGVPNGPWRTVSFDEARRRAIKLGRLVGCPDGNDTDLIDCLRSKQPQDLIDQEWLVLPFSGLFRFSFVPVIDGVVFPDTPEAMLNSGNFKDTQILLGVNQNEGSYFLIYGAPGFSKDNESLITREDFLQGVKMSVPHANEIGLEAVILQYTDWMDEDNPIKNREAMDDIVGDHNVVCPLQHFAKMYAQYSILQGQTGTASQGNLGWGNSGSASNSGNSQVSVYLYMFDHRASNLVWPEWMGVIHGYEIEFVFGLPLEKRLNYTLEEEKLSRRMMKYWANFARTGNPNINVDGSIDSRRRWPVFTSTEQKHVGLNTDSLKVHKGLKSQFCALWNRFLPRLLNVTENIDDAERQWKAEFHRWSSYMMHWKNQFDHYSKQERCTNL
Sequence of butyrylcholinesterase (BuChE, from equine serum) (P81908 whole entry): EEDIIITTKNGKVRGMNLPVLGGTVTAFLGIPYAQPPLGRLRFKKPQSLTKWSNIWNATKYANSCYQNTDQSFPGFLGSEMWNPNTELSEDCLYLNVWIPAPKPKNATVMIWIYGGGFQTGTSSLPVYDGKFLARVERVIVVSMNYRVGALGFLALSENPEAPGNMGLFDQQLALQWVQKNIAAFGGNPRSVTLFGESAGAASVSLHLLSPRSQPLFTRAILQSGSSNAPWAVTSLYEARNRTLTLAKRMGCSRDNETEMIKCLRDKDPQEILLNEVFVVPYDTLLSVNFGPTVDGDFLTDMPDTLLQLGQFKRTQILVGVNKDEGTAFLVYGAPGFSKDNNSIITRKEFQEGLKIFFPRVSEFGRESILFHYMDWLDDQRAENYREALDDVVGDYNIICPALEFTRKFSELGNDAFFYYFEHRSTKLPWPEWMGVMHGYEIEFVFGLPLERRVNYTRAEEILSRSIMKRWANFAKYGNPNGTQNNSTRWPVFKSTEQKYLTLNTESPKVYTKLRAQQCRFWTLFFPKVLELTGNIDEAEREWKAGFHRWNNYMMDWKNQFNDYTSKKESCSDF

Row | Structure (SMILES) | inhibition at 100 µM ([1]; compound at 100 μM, read-out: AChE inhibition rate (%) in 100 μM) [%] | viability at 10 µM [2] [%] | Exposure in the brain relative to plasma [3] [fold] | Acute toxicity finding [4] | IC50 [5] [µM] | IC50 [1] [µM] | Singlet oxygen scavenging compared with edaravone (Eda) [6] | Brain penetration classification [7] | Papp ([7]; means ± SD of three independent experiments, read-out: Permeability Pe, Experiment) [×10⁻⁶ cm/s]
1 | Cc1cc2c([nH]c3ccc(C(C)(C)C)cc32)c2c1OC(C)(C)C=C2 [CZ-7, reference compound] | 32.5 ± 6.52 | 113 | 4.3 | no toxic side effects | 59.5 ± 5.62 | – | – | – | –
2 | CC1(C)C=Cc2c(c(/C=C/C(=O)NCC3CCN(Cc4ccccc4F)CC3)cc3c2[nH]c2ccc(C(C)(C)C)cc23)O1 [Compound 6bb, (E)-3-(8-(tert-Butyl)-3,3-dimethyl-3,11-dihydropyrano[3,2-a]carbazol-5-yl)-N-((1-(2-fluorobenzyl)piperidin-4-yl)methyl)acrylamide] | – | 109 | – | – | 5.63 ± 0.31 | 4.08 ± 0.12 | – | – | –
3 | CC1(C)C=Cc2c(c(/C=C/C(=O)NCC3CCN(Cc4ccccc4Cl)CC3)cc3c2[nH]c2ccc(C(C)(C)C)cc23)O1 [Compound 6bd, (E)-3-(8-(tert-Butyl)-3,3-dimethyl-3,11-dihydropyrano[3,2-a]carbazol-5-yl)-N-((1-(2-chlorobenzyl)piperidin-4-yl)methyl)acrylamide] | – | 126 | – | – | 5.46 ± 0.61 | 4.34 ± 0.46 | stronger effect | good brain penetration | 4.38 ± 0.05
4 | CC1(C)C=Cc2c(c(/C=C/C(=O)NCC3CCN(Cc4cccc(Cl)c4)CC3)cc3c2[nH]c2ccc(C(C)(C)C)cc23)O1 [Compound 6be, (E)-3-(8-(tert-Butyl)-3,3-dimethyl-3,11-dihydropyrano[3,2-a]carbazol-5-yl)-N-((1-(3-chlorobenzyl)piperidin-4-yl)methyl)acrylamide] | – | 105 | – | – | 6.36 ± 1.21 | 1.69 | – | – | –
5 | CC1(C)C=Cc2c(c(/C=C/C(=O)NCC3CCN(Cc4ccc(Cl)cc4)CC3)cc3c2[nH]c2ccc(C(C)(C)C)cc23)O1 [Compound 6bf, (E)-3-(8-(tert-Butyl)-3,3-dimethyl-3,11-dihydropyrano[3,2-a]carbazol-5-yl)-N-((1-(4-chlorobenzyl)piperidin-4-yl)methyl)acrylamide] | – | 107 | – | – | 12.1 ± 0.76 | 1.63 ± 0.3 | – | – | –

— article PMC7957565 (Molecules, 2021)
